Tests used:
Del19/T790M/C797S EGFR = experiment: EGFR degradation HTRF assay in H1975-clone #28 (DTC) cells; type: cell-based; settings: H1975 # 28 DTC (Del19/T790M/C797S), 16h treatment; for DC50: HTRF; for Dmax (%): maximum percentage of degradation
Text: (§1) H1975-clone #28(Del19/T790M/C797S, or abbr: DTC), H1975-clone #23(Del19/C797S, or abbr: DC), H1975-clone #25(L858R/T790M/C797S, or abbr: LTC) and H1975-clone #8 (L858R/C797S, or abbr: LC). EGFR-Del19:T790M/C797S, EGFR-Del19/C797S, EGFR-L858R/T790M/C797S and EGFR-L858R/C797S were stably expressed in H1975 cell lines by lentivirus-mediated over-expression, respectively. The EGFR over-expressed cells then underwent knockout, in which the EGFR targeting sgRNA was designed to only target the endogenous EGFR copies and preserve the exogenous EGFR copies. Followed by the knockout, the edited H1975 cells were seeded in 96 well plates at the concentration of […], cultured for about 2 weeks to allow single clones formation. The formed clones were screened by DNA sequencing and whole exon sequencing analysis for the desired edition. H1975-clone #28, H1975-clone #23, H1975-clone #25 and H1975-clone #8 were finally confirmed as homozygous Del19/T790M/C797S EGFR, Dell9/C797S EGFR, L858R/T790M/C797S EGFR and L858R/C797S EGFR clones, respectively.
(§2) H1975-#25, H1975-#28, H1975-#23 and H1975-#8 cells are treated with compounds diluted in 0.2% DMSO cell culture medium on day 2, incubate for 16h, 37° C., 5% CO2. the final concentration of compounds in all assay is start with 10 uM, 5-fold dilution, total 8 doses were included.
(§3) After 16h treatment, add HTRF lysis buffer to each well; seal the plate and incubate 1 hour at room temperature on a plate shaker; Once the cells are lysed, 16 μL of cell lysate are transferred to a PE 384-well HTRF detection plate; 4 μL of pre-mixed HTRF antibodies are added to each well; Cover the plate with a plate sealer, spin 1000 rpm for 1 min, Incubate overnight at room temperature; Read on BMG PheraStar with HTRF protocol (337 nm-665 nm-620 nm).
(§4) The IC50 (DC50) value of a compound can be obtained by fitting the following equation
(§5) Y=Bottom+(TOP−Bottom)/(1+((IC50/X)^hillslope))
(§6) Wherein, X and Y are known values, and IC50, Hillslope, Top and Bottom are the parameters obtained by fitting with software. Y is the inhibition percentage (calculated from the equation), X is the concentration of the compound: IC50 is the concentration of the compound when the 50% inhibition is reached. The smaller the IC50 value is, the stronger the inhibitory ability of the compound is. Vice versa, the higher the IC50 value is, the weaker the ability the inhibitory ability of the compound is: Hillslope represents the slope of the fitted curve, generally around 1*; Bottom represents the minimum value of the curve obtained by data fitting, which is generally 0%±20%; Top represents the maximum value of the curve obtained by data fitting, which is generally 100%±20%. The experimental data were fitted by calculating and analyzing with Dotmatics data analysis software.

L858R/T790M/C797S EGFR = target: T1, L858R/T790M/C797S EGFR (Homo sapiens, UniProt P00533, C797S/L858R/T790M); experiment: EGFR degradation HTRF assay in H1975-clone #25 (LTC) cells; type: cell-based; settings: 16h treatment; for DC50: H1975 # 25-LTC (L858R/T790M/C797S), HTRF; for Dmax: NCI-H1975, H1975 # 25-LTC (L858R/T790M/C797S), maximum percentage of degradation
T1 construct: expressed in transfected cells; host or cells: H1975 clone #25 (lentiviral over-expression, endogenous EGFR knocked out by sgRNA)
T1 sequence (P00533 25-1210 T790M/C797S/L858R): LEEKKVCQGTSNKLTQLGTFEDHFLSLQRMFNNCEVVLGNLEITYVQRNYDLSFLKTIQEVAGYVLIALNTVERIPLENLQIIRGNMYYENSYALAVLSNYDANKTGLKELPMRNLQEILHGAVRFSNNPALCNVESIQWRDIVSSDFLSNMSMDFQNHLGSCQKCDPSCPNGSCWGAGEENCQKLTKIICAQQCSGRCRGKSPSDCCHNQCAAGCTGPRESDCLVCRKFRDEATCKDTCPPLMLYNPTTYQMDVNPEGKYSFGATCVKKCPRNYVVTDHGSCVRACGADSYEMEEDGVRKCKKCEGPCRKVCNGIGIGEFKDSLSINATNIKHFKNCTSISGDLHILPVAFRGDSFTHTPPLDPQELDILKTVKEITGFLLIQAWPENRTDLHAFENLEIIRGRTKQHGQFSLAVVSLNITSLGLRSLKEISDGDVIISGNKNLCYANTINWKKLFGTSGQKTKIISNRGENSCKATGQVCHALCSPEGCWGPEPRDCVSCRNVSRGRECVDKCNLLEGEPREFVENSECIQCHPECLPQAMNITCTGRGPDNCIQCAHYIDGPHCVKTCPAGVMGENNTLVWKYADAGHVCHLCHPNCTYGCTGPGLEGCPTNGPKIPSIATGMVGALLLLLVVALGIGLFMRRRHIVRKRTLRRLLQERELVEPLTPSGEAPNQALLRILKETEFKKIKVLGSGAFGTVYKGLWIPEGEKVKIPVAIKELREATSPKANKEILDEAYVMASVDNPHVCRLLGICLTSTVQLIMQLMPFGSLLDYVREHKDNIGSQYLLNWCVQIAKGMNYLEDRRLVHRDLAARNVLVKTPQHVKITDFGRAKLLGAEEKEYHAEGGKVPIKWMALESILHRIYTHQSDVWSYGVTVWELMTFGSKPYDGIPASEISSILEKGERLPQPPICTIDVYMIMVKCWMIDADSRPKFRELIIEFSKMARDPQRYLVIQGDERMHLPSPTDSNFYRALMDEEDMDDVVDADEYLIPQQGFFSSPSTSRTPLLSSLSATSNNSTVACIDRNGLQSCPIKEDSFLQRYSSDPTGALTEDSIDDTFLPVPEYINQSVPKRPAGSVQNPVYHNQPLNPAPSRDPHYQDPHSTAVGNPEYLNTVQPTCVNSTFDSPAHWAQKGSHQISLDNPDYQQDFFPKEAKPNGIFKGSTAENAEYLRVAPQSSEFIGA
Text: as §1, §2, §3, §4, §5, §6

| Compound | DC50 (Del19/T790M/C797S EGFR) [nM] | Dmax (%) (Del19/T790M/C797S EGFR) | DC50 (L858R/T790M/C797S EGFR) [nM] | Dmax (L858R/T790M/C797S EGFR) [%] |
| --- | --- | --- | --- | --- |
| Cc1cc2cc(n1)-c1cnn(C)c1OCCC[C@@H](C)CN1/C(=N/C2=O)Nc2ccc(N(C)C(=O)C3CCN(CCc4cc(F)c([C@H]5CCC(=O)NC5=O)c(F)c4)CC3)cc21 [Example 365, 1-(4-((R)-2,6-dioxopiperidin-3-yl)-3,5-difluorophenethyl)-N-methyl-N—((R,E)-1^1,2^6,7-trimethyl-3-oxo-5^2,5^3-dihydro-1^1H,5^1H-11-oxa-4-aza-5(2,1)-benzo[d]imidazola-2(2,4)-pyridina-(4,5)-pyrazolacycloundecaphane-5^6-yl)piperidine-4-carboxamide] | 0.625 | 80.74 | 0.878 | 91.1 |
| Cc1cc2cc(n1)-c1cnn(C)c1OCCC[C@@H](C)CN1/C(=N/C2=O)Nc2ccc(C(=O)N(C)[C@@H]3CCN(CCc4cc(F)c([C@H]5CCC(=O)NC5=O)c(F)c4)[C@H](C)C3)cc21 [Example 268, (R,E)-N—((2R,4R)-1-(4-((R)-2,6-dioxopiperidin-3-yl)-3,5-difluorophenethyl)-2-methylpiperidin-4-yl) -N,1^1,2^6,7-tetramethyl-3-oxo-5^2,5^3-dihydro-1^1H,5^1H-li-oxa-4-aza-5(2,1)-benzo[d]imidazola-2(2,4)-pyridina-1(4,5)-pyrazolacycloundecaphane-5^6-carboxamide] | 0.439 | 81.98 | 0.53 | 89.8 |
| Cc1cc2cc(n1)-c1cnn(C)c1OCCC[C@@H](C)CN1/C(=N/C2=O)Nc2ccc(C(=O)N3CC[C@H]4CN(CCc5cc(F)c([C@H]6CCC(=O)NC6=O)c(F)c5)CC[C@H]43)cc21 [Example 304, (R)-3-(2,6-difluoro-4-(2-((3aS,7aR)-1-((R,E)-1^1,2^6,7-trimethyl-3-oxo-5^2,5^3-dihydro-1^1H,5^1H-11-oxa-4-aza-5(2,1)-benzo[d]imidazola-2(2,4)-pyridina-1(4,5)-pyrazolacycloundecaphane-5^6-carbonyl)octahydro-5H-pyrrolo[3,2-c]pyridin-5-yl)ethyl)phenyl)piperidine-2,6-dione] | 0.595 | 78.73 | 0.61 | 79.9 |
| Cc1cc2cc(n1)-c1cnn(C)c1OCCC[C@@H](C)CN1/C(=N/C2=O)Nc2ccc(C(=O)N(C)[C@@H]3CCN(C4CN(c5cc(F)c([C@H]6CCC(=O)NC6=O)c(F)c5)C4)C[C@@H]3F)cc21 [Example 382, (R,E)-N—((3S,4R)-1-(1-(4-((R)-2,6-dioxopiperidin-3-yl)-3,5-difluorophenyl)azetidin-3-yl)-3-fluoropiperidin-4-yl)-N,1^1,2^6,7-tetramethyl-3-oxo-5^2,5^3-dihydro-1^1H,5^1H-11-oxa-4-aza-5(2,1)-benzo[d]imidazola-2(2,4)-pyridina-1(4,5)-pyrazolacycloundecaphane-5^5-carboxamide] | 0.617 | 86.76 | 0.233 | 87.5 |
| Cc1cc2cc(n1)-c1cnn(C)c1OCCC[C@@H](C)CN1/C(=N/C2=O)Nc2ccc(N3CCC(N4CCN(c5cc(F)c([C@H]6CCC(=O)NC6=O)c(F)c5)CC4=O)CC3)cc21 [Example 450, (R)-3-(2,6-difluoro-4-(3-oxo-4-(1-((R,E)-1^1,2^6,7-trimethyl-3-oxo-5^2,5^3-dihydro-1^1H,5^1H-11-oxa-4-aza-5(2,1)-benzo[d]imidazola-2(2,4)-pyridina-1(4,5)-pyrazolacycloundecaphane-5^6-yl)piperidin-4-yl)piperazin-1-yl)phenyl)piperidine-2,6-dione] | 0.647 | 83.01 | 0.678 | 88.7 |
| Cc1cc2cc(n1)-c1cnn(C)c1OCCC[C@@H](C)CN1/C(=N/C2=O)Nc2ccc(CN3CCC4(CC3)CN(CCc3cc(F)c([C@H]5CCC(=O)NC5=O)c(F)c3)C4)cc21 [Example 23, (R)-3-(2,6-difluoro-4-(2-(7-(((R,E)-1^1,2^6,7-trimethyl-3-oxo-5^2,5^3-dihydro-1^1H,5^1H-11-oxa-4-aza-5(2,1)-benzo[d]imidazola-2(2,4)-pyridina-1(4,5)-pyrazolacycloundecaphane-5^6-yl)methyl)-2,7-diazaspiro[3.5]nonan-2-yl)ethyl)phenyl)piperdine-2,6-dione] | 2.1 | 78.0 | 2.3 | 91.8 |
| Cc1cc2cc(n1)-c1cnn(C)c1OCCC[C@@H](C)CN1/C(=N/C2=O)Nc2ccc(N3CCN(CC4CN(c5cc(F)c([C@H]6CCC(=O)NC6=O)c(F)c5)C4)CC3)cc21 [Example 321, (R)-3-(2,6-difluoro-4-(3-((4-((R,E)-1^1,2^6,7-trimethyl-3-oxo-5^2,5^3-dihydro-1^1H,5^1H-11-oxa-4-aza-5(2,1)-benzo[d]imidazola-2(2,4)-pyridina-1(4,5)-pyrazolacycloundecaphane-5^6-yl)piperazin-1-yl)methyl)azetidin-1-yl)phenyl)piperidine-2,6-dione] | 1.18 | 73.52 | 1.17 | 88.2 |
| Cc1cc2cc(n1)-c1cnn(C)c1OCCC[C@@H](C)CN1/C(=N/C2=O)Nc2ccc(C(=O)N[C@@H]3CCN(CCc4cc(F)c([C@H]5CCC(=O)NC5=O)c(F)c4)CC3(F)F)cc21 [Example 260, (R,E)-N—((R)-1-(4-((R)-2,6-dioxopiperidin-3-yl)-3,5-difluorophenethyl)-3,3-difluoropiperidin-4-yl)-1,2^6,7-trimethyl-3-oxo-5^2,5^3-dihydro-1^1H,5^1H-11-oxa-4-aza-5(2,1)-benzo[d]imidazola-2(2,4)-pyridina-1(4,5)-pyrazolacycloundecaphane-5^6-carboxamide] | 0.633 | 86.51 | 0.544 | 94 |
| Cc1cc2cc(n1)-c1cnn(C)c1OCCC[C@@H](C)CN1/C(=N/C2=O)Nc2ccc(N3CCN(CC4CN(c5cc(F)c([C@H]6CCC(=O)NC6=O)c(F)c5)C4)[C@@H](CO)C3)cc21 [Example 422, (R)-3-(2,6-difluoro-4-(3-(((R)-2-(hydroxymethyl)-4-((R,E)-1^1,2^6,7-trimethyl-3-oxo-5^2,5^3-dihydro-1^1H,5^1H-li-oxa-4-aza-5(2,1)-benzo[d]imidazola-2(2,4)-pyridina-1(4,5)-pyrazolacycloundecaphane-5^6-yl)piperazin-1-yl)methyl)azetidin-1-yl)phenyl)piperidine-2,6-dione] | 0.652 | 83.55 | 0.856 | 92.2 |
| Cc1cc2cc(n1)-c1cnn(C)c1OCCC[C@@H](C)CN1/C(=N/C2=O)Nc2ccc(N3CC[C@@H](N4CCN(c5cc(F)c([C@H]6CCC(=O)NC6=O)c(F)c5)CC4)CC3=O)cc21 [Example 448, (R)-3-(2,6-difluoro-4-(4-((R)-2-oxo-1-((R,E)-1^1,2^6,7-trimethyl-3-oxo-5^2,5^3-dihydro-1^1H,5^1H-11-oxa-4-aza-5(2,1)-benzo[d]imidazola-2(2,4)-pyridina-1(4,5)-pyrazolacycloundecaphane-5^6-yl)piperidin-4-yl)piperazin-1-yl)phenyl)piperidine-2,6-dione] | 0.584 | 88.36 | 0.237 | 92.3 |
| Cc1cc2cc(n1)-c1cnn(C)c1OCCC[C@@H](C)CN1/C(=N/C2=O)Nc2ccc(C(=O)N(C)CCCCc3cc(F)c([C@H]4CCC(=O)NC4=O)c(F)c3)cc21 [Example 339, (R,E)-N-(4-(4-((R)-2,6-dioxopiperidin-3-yl)-3,5-difluorophenyl)butyl)-N,1^1,2^6,7-tetramethyl-3-oxo-5^2,5^3-dihydro-1^1H,5^1H-11-oxa-4-aza-5(2,1)-benzo[d]imidazola-2(2,4)-pyridina-1(4,5)-pyrazolacycloundecaphane-5^6-carboxamide] | 0.671 | 70.76 | 0.865 | 80.3 |

Source: US20240342292A1, “Compounds for the Degradation of EGFR Kinase” (BeiGene Switzerland GmbH, priority 2021, published 2024)
